# Article PMC10443802, “Targeting a xenobiotic transporter to ameliorate vincristine-induced sensory neuropathy” (JCI Insight, 2023)
# Several values for one entry are separate records, joined by “and”; a condition that tells them apart may be missing. Equal values may be shown once. Read-outs that look alike come from different tables or passages of the source.
# Columns and labels:
# OATP1B-type transporters = conditions: cited from earlier work
# mice [1] = conditions: cited from earlier work
# mice [2] = conditions: for Protection against treatment-related mechanical allodynia by OATP1B2 deficiency: mouse, in vivo
# mOATP1B2 [3] = target: T1, mOATP1B2 (Mus musculus, UniProt Q9JJL3); experiment: Inhibition of vincristine uptake in HEK293 cells overexpressing mOATP1B2; assay type: cell-based
# T1 sequence (Q9JJL3 1-689): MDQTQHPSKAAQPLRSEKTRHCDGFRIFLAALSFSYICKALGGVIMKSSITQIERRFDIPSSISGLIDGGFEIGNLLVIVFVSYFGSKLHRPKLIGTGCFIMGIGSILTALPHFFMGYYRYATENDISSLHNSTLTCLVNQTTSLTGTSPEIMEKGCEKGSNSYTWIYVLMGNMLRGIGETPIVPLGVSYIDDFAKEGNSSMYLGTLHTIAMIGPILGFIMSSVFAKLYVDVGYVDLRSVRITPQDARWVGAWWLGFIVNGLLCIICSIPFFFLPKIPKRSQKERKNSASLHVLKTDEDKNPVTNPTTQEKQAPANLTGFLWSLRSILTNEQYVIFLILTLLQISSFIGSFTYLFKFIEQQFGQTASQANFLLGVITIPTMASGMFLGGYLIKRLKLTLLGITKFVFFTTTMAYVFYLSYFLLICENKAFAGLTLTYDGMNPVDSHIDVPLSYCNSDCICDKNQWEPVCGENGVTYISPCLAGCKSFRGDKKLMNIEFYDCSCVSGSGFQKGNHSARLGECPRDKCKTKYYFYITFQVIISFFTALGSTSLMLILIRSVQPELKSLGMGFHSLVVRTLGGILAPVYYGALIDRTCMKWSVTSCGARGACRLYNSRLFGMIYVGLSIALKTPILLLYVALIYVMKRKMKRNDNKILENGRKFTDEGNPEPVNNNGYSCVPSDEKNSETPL
# hOATP1B1 [4] = target: T2, hOATP1B1 (Homo sapiens, UniProt Q9Y6L6); experiment: Inhibition of vincristine uptake in HEK293 cells overexpressing hOATP1B1; conditions: inhibitor 15 min pre-treatment
# T2 sequence (Q9Y6L6 1-691): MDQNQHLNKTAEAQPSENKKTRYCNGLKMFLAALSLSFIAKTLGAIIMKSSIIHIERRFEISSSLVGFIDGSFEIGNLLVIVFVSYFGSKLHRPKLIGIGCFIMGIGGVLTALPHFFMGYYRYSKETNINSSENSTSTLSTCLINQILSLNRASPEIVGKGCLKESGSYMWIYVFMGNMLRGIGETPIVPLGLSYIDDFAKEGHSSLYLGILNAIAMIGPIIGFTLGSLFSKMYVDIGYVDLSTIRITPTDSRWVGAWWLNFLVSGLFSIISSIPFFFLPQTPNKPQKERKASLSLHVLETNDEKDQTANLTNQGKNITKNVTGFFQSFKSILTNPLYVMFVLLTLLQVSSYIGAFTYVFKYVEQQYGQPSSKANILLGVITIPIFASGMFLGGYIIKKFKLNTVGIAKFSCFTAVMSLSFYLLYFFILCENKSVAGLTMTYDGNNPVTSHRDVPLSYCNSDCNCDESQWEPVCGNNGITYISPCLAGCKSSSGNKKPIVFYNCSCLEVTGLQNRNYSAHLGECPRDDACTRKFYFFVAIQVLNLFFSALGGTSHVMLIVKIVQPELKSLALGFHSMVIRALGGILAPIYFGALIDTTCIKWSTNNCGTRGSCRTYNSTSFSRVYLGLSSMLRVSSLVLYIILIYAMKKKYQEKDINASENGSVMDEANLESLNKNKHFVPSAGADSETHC
# hOATP1B3 [5] = target: T3, hOATP1B3 (Homo sapiens, UniProt Q9NPD5); experiment: Inhibition of vincristine uptake in HEK293 cells overexpressing hOATP1B3; conditions: inhibitor 15 min pre-treatment
# T3 sequence (Q9NPD5 1-702): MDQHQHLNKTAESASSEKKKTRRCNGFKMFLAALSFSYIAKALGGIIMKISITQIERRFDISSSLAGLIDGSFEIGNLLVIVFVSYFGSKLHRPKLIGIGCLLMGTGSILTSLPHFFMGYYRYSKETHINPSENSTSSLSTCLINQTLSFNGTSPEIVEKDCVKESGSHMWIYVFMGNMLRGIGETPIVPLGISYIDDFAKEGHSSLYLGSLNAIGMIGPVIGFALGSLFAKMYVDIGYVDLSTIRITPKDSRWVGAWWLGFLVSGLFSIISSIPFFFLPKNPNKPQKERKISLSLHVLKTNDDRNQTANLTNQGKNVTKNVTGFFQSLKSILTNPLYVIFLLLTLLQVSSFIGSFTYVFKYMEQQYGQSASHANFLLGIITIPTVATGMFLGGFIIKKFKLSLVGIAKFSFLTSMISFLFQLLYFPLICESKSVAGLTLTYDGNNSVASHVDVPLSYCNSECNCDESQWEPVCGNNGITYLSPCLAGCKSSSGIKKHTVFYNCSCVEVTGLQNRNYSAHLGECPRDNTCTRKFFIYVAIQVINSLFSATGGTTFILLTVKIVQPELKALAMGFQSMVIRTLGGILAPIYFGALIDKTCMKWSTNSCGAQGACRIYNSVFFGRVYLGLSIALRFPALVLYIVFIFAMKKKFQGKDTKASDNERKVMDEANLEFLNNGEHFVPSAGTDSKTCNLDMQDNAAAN
# mOATP1B2 [6] = target: T1, mOATP1B2; experiment: Inhibition of EβG uptake in HEK293 cells overexpressing mOATP1B2; assay type: cell-based
# hOATP1B1 [7] = target: T2, hOATP1B1; experiment: Inhibition of EβG uptake in HEK293 cells overexpressing hOATP1B1; conditions: inhibitor 10 μM, 15-min pre-incubation
# hOATP1B3 [8] = target: T3, hOATP1B3; experiment: Inhibition of EβG uptake in HEK293 cells overexpressing hOATP1B3; conditions: HEK293 hOATP1B3; inhibitor 10 μM, 15-min pre-incubation
# OATP1B2 = experiment: Plasma level and DRG/plasma ratio of α-tocopherol in mice (biomarker of OATP1B2 function); assay type: in vivo, mouse
# [9] = mOATP1B2, in presence of alpha-tocopherol
smiles,measurement,setting,value
"OCCN(CCO)c1nc(N2CCCCC2)c2nc(N(CCO)CCO)nc(N3CCCCC3)c2n1 [Dipyridamole, dipyridamole]",Inhibitory potency against OATP1B-type transporters,OATP1B-type transporters,moderate inhibitory potency
same,Protection against VIPN,mice [1],partially protected against VIPN in mice
"CC(=O)O[C@@]12CO[C@@H]1C[C@H](O)[C@@]1(C)C(=O)[C@H](O)C3=C(C)[C@@H](OC(=O)[C@H](O)[C@@H](NC(=O)OC(C)(C)C)c4ccccc4)C[C@@](O)([C@@H](OC(=O)c4ccccc4)[C@H]21)C3(C)C [Docetaxel, docetaxel]",Protection against treatment-related mechanical allodynia by OATP1B2 deficiency,mice [2]; DBA/1LacJ,independently of OATP1B2
"C=C1C[C@@H]2CC[C@@]34C[C@H]5O[C@H]6[C@@H](O3)[C@H]3O[C@H](CC[C@@H]3O[C@H]6[C@H]5O4)CC(=O)C[C@@H]3[C@@H](OC)[C@@H](C[C@H](O)CN)O[C@H]3C[C@H]3O[C@@H](CC[C@@H]1O2)C[C@@H](C)C3=C [Eribulin, eribulin]",Protection against treatment-related mechanical allodynia by OATP1B2 deficiency,mice [2]; DBA/1LacJ,independently of OATP1B2
"C/C(=C\c1csc(C)n1)[C@@H]1C[C@@H]2O[C@]2(C)CCC[C@H](C)[C@H](O)[C@@H](C)C(=O)C(C)(C)[C@@H](O)CC(=O)N1 [Ixabepilone, ixabepilone]",Protection against treatment-related mechanical allodynia by OATP1B2 deficiency,mice [2]; DBA/1LacJ,independently of OATP1B2
"CC(=O)O[C@H]1C(=O)[C@@]2(C)[C@H]([C@H](OC(=O)c3ccccc3)[C@]3(O)C[C@H](OC(=O)[C@H](O)[C@@H](NC(=O)c4ccccc4)c4ccccc4)C(C)=C1C3(C)C)[C@]1(OC(C)=O)CO[C@@H]1C[C@@H]2O [Paclitaxel, paclitaxel]",Protection against treatment-related mechanical allodynia by OATP1B2 deficiency,mice [2],protection against treatment-related mechanical allodynia was only observed
"CO[C@H]1/C=C/O[C@@]2(C)Oc3c(C)c(O)c4c(O)c(c(/C=N/N5CCN(C)CC5)c(O)c4c3C2=O)NC(=O)/C(C)=C\C=C\[C@H](C)[C@H](O)[C@@H](C)[C@@H](O)[C@@H](C)[C@H](OC(C)=O)[C@@H]1C [Rifampicin, rifampicin]",Vincristine uptake (% of vehicle),"mOATP1B2 [3]; HEK293 mOATP1B2, inhibitor 15 min pre-treatment",69.4167 % of vehicle and 71.9856 % of vehicle and 78.1737 % of vehicle and 74.3324 % of vehicle and 63.8503 % of vehicle and 67.3213 % of vehicle
same,Vincristine uptake (% of vehicle),hOATP1B1 [4],68.5513 % of vehicle and 91.3571 % of vehicle and 64.0921 % of vehicle
same,Vincristine uptake (% of vehicle),hOATP1B3 [5],68.0365 % of vehicle and 67.1426 % of vehicle and 57.6334 % of vehicle and 46.0272 % of vehicle and 55.4053 % of vehicle and 65.8991 % of vehicle
same,EβG uptake (% of vehicle),"mOATP1B2 [6]; HEK293 mOATP1B2, inhibitor 10 μM, 15-min pre-incubation",9.089 % of vehicle and 9.168 % of vehicle and 8.011 % of vehicle
same,EβG uptake (% of vehicle),hOATP1B1 [7],26.1825 % of vehicle and 31.1005 % of vehicle and 27.1566 % of vehicle
same,EβG uptake (% of vehicle),hOATP1B3 [8],4.339 % of vehicle and 4.237 % of vehicle and 4.051 % of vehicle
same,Protective effect against VIPN (mechanical allodynia),"mice [2]; rifampin pretreatment 20 mg/kg, single vincristine 1 mg/kg, wild-type mice",could be replicated with pretreatment of orally administered rifampin
same,"Level of α-tocopherol (% of wild-type baseline), DRG/Plasma Ratio","OATP1B2; WT mice treated with the inhibitor, DRG/plasma ratio, listed as Rifampin",27.9959% and 27.249% and 34.1971%
same,"Level of α-tocopherol (% of wild-type baseline), Plasma","OATP1B2; WT mice treated with the inhibitor, plasma, listed as Rifampin",236.636% and 352.754% and 217.386%
same,"Level of α-tocopherol (% of wild-type baseline), relative DRG/plasma ratio","OATP1B2; WT mice, 2 hours after rifampin 20 mg/kg i.p.",27.9959 % of wild-type baseline and 27.249 % of wild-type baseline and 34.1971 % of wild-type baseline
"CCC1=C[C@@H]2CN(C1)Cc1c([nH]c3ccccc13)[C@@](C(=O)OC)(c1cc3c(cc1OC)N(C)[C@H]1[C@@](O)(C(=O)OC)[C@H](OC(C)=O)[C@]4(CC)C=CCN5CC[C@]31[C@@H]54)C2 [Vinorelbine, vinorelbine]",Protection against treatment-related mechanical allodynia by OATP1B2 deficiency,mice [2]; DBA/1LacJ,independently of OATP1B2
Cc1c(C)c2c(c(C)c1O)CC[C@@](C)(CCC[C@H](C)CCC[C@H](C)CCCC(C)C)O2 [alpha-tocopherol],Vincristine uptake (% of vehicle),mOATP1B2 [3]; [9],51.7599% and 63.6149% and 58.7604%
same,EβG uptake (% of vehicle),mOATP1B2 [6]; [9],113.612% and 99.0126% and 119.375% and 118.704% and 95.6597% and 100.791%
